Converted amounts (≈) assume the structure as drawn. Read-outs that look alike come from different tables or passages of the source.
How the values were obtained:
Namalwa cells = test: Cell viability, CELL TITER GLO assay (Promega), Namalwa cells; type: cell-based
Procedure: (§1) FIGS. 2A to 2E show exemplary results of cell viability assay of compound 1. […] Results were expressed as a mean+/−SEM (n=3). RLU: Relative Luminescence Units.
(§2) The effect of compound 1 on cell viability in several cancer cell lines were determined. The cancer cell lines employed in the assay included those corresponding to hematopoietic and solid tumors. Exemplary results are shown in FIGS. 2A to 2E, where viability was assessed by CELL TITER GLO assay (Promega). Compound 1 was also submitted in a blinded fashion to the National Cancer Institute's CTD cancer cell line profiling pipeline, which enabled sensitivity profiling in about 800 cancer cell lines with annotation of specific genomic lesions that impart on human cancers (FIGS. 3A to 3B). […] The effects of other compounds described herein on cell viability in several cancer cell lines were also determined, and exemplary results are shown in Table 2, where viability was assessed by CELL TITER GLO assay (Promega).

[1] = Aqueous solubility at 37° C.; type: physicochemical
NCIH1975 cells = test: Cell viability, CELL TITER GLO assay (Promega), NCIH1975 cells; type: cell-based; settings: Homo sapiens, NCI-H1975
Procedure: as §1, §2

cancer cell lines = test: Cell viability in cancer cell lines (CELL TITER GLO; CTD cancer cell line profiling); type: cell-based
Procedure: as §1
FIGS. 3A to 3B show CTD^2 viability data profile of cancer cell lines treated with compound 1. FIG. 3A: dose response curves of 789 cell lines treated with compound 1 for 72 hours. FIG. 3B: relative percent composition of cell lineages and enrichment analysis after treatment with compound 1.
as §2

[2] = Intrinsic clearance (liver microsomes, human), half-life; type: in vitro ADME
Eu-Myc Arf −/− cells = test: Cell viability, CELL TITER GLO assay (Promega), Eu-Myc Arf −/− cells; type: cell-based
Procedure: as §2

c-Myc [3] = test: Affinity-based pull down of c-Myc from nuclear lysate with compound-loaded beads, Western blot; type: binding
Procedure: Compound 19 beads (Figure SA) and compound 55 beads (FIG. 5B) were used. Results are expressed as a mean+/−SEM (n=3). Compound 55 beads were formed by a method analogous to the method shown in FIG. 4, where beads were linked to the —NH2 moiety of compound 55 by forming a urea moiety.
In order to explore the mechanism of action of compound 1, preliminary target identification experiments involving affinity-based pull downs were carried out. […] The structure of compound 19 allowed for linking compound 1 to beads (AFFI-GEL 102, Bio-Rad) (FIG. 4).
The linkage site to the bead via the nitrogen atom of the benzimidazolyl moiety was the original site of attachment to the small-molecule microarray and represented the orientation in the original screen.

c-Myc [4] = test: c-Myc reporter gene assay (Qiagen) in HEK293T cells; type: cell-based; settings: Homo sapiens, HEK-293T, 16 h, treatment 16 hours, Firefly/Renilla ratio
Procedure: Compound 1's activity against Myc was measured as a Firefly/Renilla ratio, using the Myc reporter assay (Qiagen) in HEK293T cells after treatment with compound 1 for 16 hours. Results are expressed as a mean+/−SD (n=3). SD: standard deviation.
Select compounds described herein that were SMM assay positives were evaluated in several versions of a c-Myc reporter gene assay, including a commercial assay from Qiagen. The compounds' activities against c-Myc were measured as a Firefly/Renilla ratio, using the Myc reporter assay (Qiagen) in HEK293T cells after treatment with the compounds for 16 hours.

- solubility ([1]; aqueous buffer, PBS, pH 7.4, 37° C., read-out: Solubility at 37° C., aqueous solubility (PBS, pH 7.4)): < 1 µM
- solubility ([1]; fassgf or other biorelevant, simulated intestinal fluid, 37° C., read-out: Solubility at 37° C., aqueous solubility (simulated intestinal fluid)): 80.2 µM (≈ 30.9 µg/mL)
- solubility ([1]; simulated gastric fluid, 37° C., read-out: Solubility at 37° C., aqueous solubility (simulated gastric fluid)): 62.7 µM (≈ 24.2 µg/mL)
- Half-life, intrinsic clearance (liver microsomes, human) [2]: 22 min
- IC50 (c-Myc [4]): 0.67 µM
Compound: CC(C)N1C(=O)S/C(=C\c2ccc(Sc3nc4ccccc4[nH]3)o2)C1=O [Compound 1, (Z)-5-((5-((1H-benzo[d]imidazol-2-yl)thio)furan-2-yl)methylene)-3-isopropylthiazolidine-2,4-dione]
- IC50 (Namalwa cells): 21.1 µM
- IC50 (NCIH1975 cells): 24.9 µM
- effect on cell viability in 5 cancer cell lines (cancer cell lines; 3 days, NCIH1975, SNUC5, Namalwa, KLP1, Hela, CELL TITER GLO): affected cell viability
- effect on cell viability in a variety of cancer cell lines (cancer cell lines; several cancer cell lines and CTD profiling of about 800 cancer cell lines, 72 hours): demonstrated an effect in cell viability
- IC50 (Eu-Myc Arf −/− cells): 10.2 µM
- c-Myc levels pulled down with free compound as soluble competitor (c-Myc [3]; beads linked via nitrogen atom of the benzimidazolyl moiety (compound 55 beads)): decreased levels of c-Myc
- c-Myc pulled down with free compound as soluble competitor (c-Myc [3]; compound 19 beads, nuclear lysate, 5 μM soluble competitor): less c-Myc pulled down
